From patent US20240166646A1, “1H-PYRROLO[2,3-B]PYRIDINE DERIVATIVES AS BCL-2 INHIBITORS FOR THE TREATMENT OF NEOPLASTIC AND AUTOIMMUNE DISEASES” (Newave Pharmaceutical Inc., priority 2020, published 2024)
Structures can show the parent of a compound that is named as a salt.

How the values were obtained:
[1] = target: Bcl-w (Homo sapiens (Human), UniProt Q92843); conditions: cited from earlier work
[2] = test system: SCLC H146 cell line; conditions: read-out: IC50 against SCLC H146 cell line; cited from earlier work
[3] = test system: H345 xenograft; conditions: 100 mg/kg/day, H345 xenograft model; cited from earlier work
[4] = test system: xenograft models of small-cell lung cancer and acute lymphoblastic leukemia; conditions: oral administration, alone; cited from earlier work
[5] = test system: circulating platelets; conditions: clinical trial, patients; cited from earlier work
[6] = in vivo; cited from earlier work
[7] = cited from earlier work
[8] = test system: established tumors; conditions: mouse, in vivo; cited from earlier work
[9] = target: Bcl-2 (Homo sapiens (Human), UniProt P10415); assay: Bcl-2 competition binding (fluorescence polarization) assay; conditions: fluorescein labeled BH3 peptide 15 nM, Bcl-2 protein 30 nM, 3 hours of incubation at room temperature
Sequence of Bcl-2 (P10415 whole entry): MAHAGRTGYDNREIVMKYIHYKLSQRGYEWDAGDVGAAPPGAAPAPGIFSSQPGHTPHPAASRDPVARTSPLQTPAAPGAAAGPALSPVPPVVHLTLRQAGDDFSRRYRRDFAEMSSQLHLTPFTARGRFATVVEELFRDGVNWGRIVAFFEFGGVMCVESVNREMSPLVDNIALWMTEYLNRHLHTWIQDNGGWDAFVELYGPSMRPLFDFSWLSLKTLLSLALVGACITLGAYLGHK
Procedure, shortened: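 Fluorescence polarization competition of 15 nM labeled 23-mer BH3 peptide with 30 nM purified Bcl-2, in 20 mM Hepes pH 7.0, 50 mM KCl, 5 mM MgCl2, 20 mM Na2MoO4, 0.1 mg/ml bovine gamma globulin, 0.01% NP40. Compounds 20 μM to 2 nM final; mP read after 3 h at room temperature, background-subtracted. IC50 from sigmoidal dose-response fit.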

[10] = test system: BCL-2-dependent acute lymphoblastic leukemia (ALL) cell line RS4; 11 with G101V mutation; assay: In vitro anti-proliferation assay (ATPlite) in RS4; 11 with G101V mutation; assay type: cell-based; conditions: about 72 hours incubation, medium with 5% FBS or 10% normal human serum, ATPlite luminescence
Procedure, shortened: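 About 1×10^4 cells per well exposed to a compound dose range for about 72 h in medium with 5% FBS or 10% normal human serum. ATP content read by ATPlite luminescence after lysis. IC50 derived from dose-response.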

[11] = target: Mcl-1 (Homo sapiens (Human), UniProt Q07820); conditions: cited from earlier work
Sequence of Mcl-1 (Q07820 whole entry): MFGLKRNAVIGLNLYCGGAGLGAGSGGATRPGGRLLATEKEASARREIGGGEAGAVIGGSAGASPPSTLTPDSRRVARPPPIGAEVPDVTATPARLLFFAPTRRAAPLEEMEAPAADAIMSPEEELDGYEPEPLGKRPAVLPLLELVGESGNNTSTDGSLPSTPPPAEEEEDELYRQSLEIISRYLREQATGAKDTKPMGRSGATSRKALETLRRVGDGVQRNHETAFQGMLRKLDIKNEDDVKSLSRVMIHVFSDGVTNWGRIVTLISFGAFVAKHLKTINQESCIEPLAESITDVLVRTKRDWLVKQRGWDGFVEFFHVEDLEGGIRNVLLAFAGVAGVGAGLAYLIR

[12] = test system: RS4; 11 cells; conditions: cited from earlier work
[13] = test system: CLL; conditions: average; read-out: average EC50, apoptosis in CLL; cited from earlier work
[14] = test system: RS4; 11 xenografts; conditions: single dose of 100 mg/kg; cited from earlier work
[15] = test system: DoHH2 xenograft; conditions: single agent or in combination with Bendamustine and other agents; cited from earlier work
[16] = test system: Granta-519 xenograft; conditions: single agent or in combination with Bendamustine and other agents; cited from earlier work
[17] = test system: CLL who have 17p deletion; conditions: Human Phase I and II data; cited from earlier work

Sequence of Bcl-w (Q92843 whole entry): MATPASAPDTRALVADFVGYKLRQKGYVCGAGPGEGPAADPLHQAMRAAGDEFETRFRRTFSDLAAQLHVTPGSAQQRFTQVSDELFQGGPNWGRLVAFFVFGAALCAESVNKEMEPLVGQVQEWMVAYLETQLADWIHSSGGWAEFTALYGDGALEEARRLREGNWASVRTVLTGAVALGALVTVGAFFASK

Structure (SMILES) | IC50 [9] [nM] | IC50 [10] [nM] | IC50 ([10]; RS4-11) [nM] | also measured
CC1(C)CCC(c2ccc(Cl)cc2)=C(CN2CCN(c3ccc(C(=O)NS(=O)(=O)c4ccc(N[C@H](CCN5CCOCC5)CSc5ccccc5)c(S(=O)(=O)C(F)(F)F)c4)cc3)CC2)C1 [ABT-263] | – | – | – | Ki [1]: 1 nM; IC50 [2]: 110 nM; TGI [3]: 80%; treated tumors indicating at least a 50% reduction in tumor volume [3]: 20%; tumor regression [4]: complete tumor regressions; effect on number of circulating platelets [5]: rapid, concentration-dependent decrease in the number of circulating platelets; oral bioavailability [6]: orally bioavailable
CN(C)CC[C@H](CSc1ccccc1)Nc1ccc(S(=O)(=O)NC(=O)c2ccc(N3CCN(Cc4ccccc4-c4ccc(Cl)cc4)CC3)cc2)cc1[N+](=O)[O-] [ABT-737] | – | – | – | oral bioavailability [6]: not orally bioavailable; aqueous solubility [7]: low aqueous solubility; efficacy in animal models [8]: improves survival, causes regression of established tumors, and produces cures in a high percentage of the mice
O=C(NS(=O)(=O)c1ccc(NCC2CCOCC2)c([N+](=O)[O-])c1)c1ccc(N2CCC3(CC2)CC(N2CCC[C@H]2c2ccccc2C2CC2)C3)cc1N1c2cc3cc[nH]c3nc2O[C@@H]2COC[C@H]21 [Example 8, 4-{2-[(2S)-2-(2-cyclopropylphenyl)pyrrolidin-1-yl]-7-azaspiro[3.5]nonan-7-yl}-2-[(11R,15S)-13,16-dioxa-2,4,10-triazatetracyclo[7.7.0.0^{3,7}.0^{11,15}]hexadeca-1(9),2,5,7-tetraen-10-yl]-N-{3-nitro-4-[(oxan-4-ylmethyl)amino]benzenesulfonyl}benzamide hydrochloride] | 0.066 | 9.1 | – | –
C=Cc1ccccc1[C@@H]1CCCN1C1CC2(CCN(c3ccc(C(=O)NS(=O)(=O)c4ccc(NCC5CCOCC5)c([N+](=O)[O-])c4)c(N4c5cc6cc[nH]c6nc5O[C@@H]5COC[C@H]54)c3)CC2)C1 [Example 6, 2-[(11R,15S)-13,16-dioxa-2,4,10-triazatetracyclo[7.7.0.0^{3,7}.0^{11,15}]hexadeca-1(9),2,5,7-tetraen-10-yl]-4-{2-[(2S)-2-(2-ethenylphenyl)pyrrolidin-1-yl]-7-azaspiro[3.5]nonan-7-yl}-N-{3-nitro-4-[(oxan-4-ylmethyl)amino]benzenesulfonyl}benzamide hydrochloride] | 0.083 | 29 | – | –
CC(C)Oc1ccccc1[C@@H]1CCCN1C1CC2(CCN(c3ccc(C(=O)NS(=O)(=O)c4ccc(NCC5(F)CCOCC5)c([N+](=O)[O-])c4)c(N4c5cc6cc[nH]c6nc5O[C@@H]5COC[C@H]54)c3)CC2)C1 [Example 42, N-((4-(((4-fluorotetrahydro-2H-pyran-4-yl)methyl)amino)-3-nitrophenyl)sulfonyl)-4-(2-((S)-2-(2-isopropoxyphenyl)pyrrolidin-1-yl)-7-azaspiro[3.5]nonan-7-yl)-2-((5aR,8aS)-5a,6,8,8a-tetrahydrofuro[3,4-b]pyrrolo[3′,2′:5,6]pyrido[3,2-e][1,4]oxazin-5(1H)-yl)benzamide] | 0.217 | – | 29.2 | –
CC(C)Oc1ccccc1[C@@H]1CCCN1C1CC2(CCN(c3ccc(C(=O)NS(=O)(=O)c4ccc(NCC5CCOCC5)c([N+](=O)[O-])c4)c(N4c5cc6cc[nH]c6nc5O[C@H]5CCOC[C@@H]54)c3)CC2)C1 [Example 58, 4-(2-((S)-2-(2-isopropoxyphenyl)pyrrolidin-1-yl)-7-azaspiro[3.5]nonan-7-yl)-N-((3-nitro-4-(((tetrahydro-2H-pyran-4-yl)methyl)amino)phenyl)sulfonyl)-2-((5aS,9aS)-5a,8,9,9a-tetrahydro-6H-pyrano[4,3-b]pyrrolo[3′,2′:5,6]pyrido[3,2-e][1,4]oxazin-5(1H)-yl)benzamide] | 0.324 | – | 188 | –
Cc1ccccc1[C@@H]1CCCN1C1CC2(CCN(c3ccc(C(=O)NS(=O)(=O)c4ccc(NC[C@H]5COCCO5)c([N+](=O)[O-])c4)c(N4c5cc6cc[nH]c6nc5O[C@@H]5COC[C@H]54)c3)CC2)C1 [Example 39, N-((4-((((S)-1,4-dioxan-2-yl)methyl)amino)-3-nitrophenyl)sulfonyl)-2-((5aR,8aS)-5a,6,8,8a-tetrahydrofuro[3,4-b]pyrrolo[3′,2′:5,6]pyrido[3,2-e][1,4]oxazin-5(1H)-yl)-4-(2-((S)-2-(o-tolyl)pyrrolidin-1-yl)-7-azaspiro[3.5]nonan-7-yl)benzamide] | 0.19 | – | 49.2 | –
CC1(C)CCC(CN2CCN(c3ccc(C(=O)NS(=O)(=O)c4ccc(NCC5CCOCC5)c([N+](=O)[O-])c4)c(Oc4cnc5[nH]ccc5c4)c3)CC2)=C(c2ccc(Cl)cc2)C1 [ABT-199] | – | – | 1200 | activity to Mcl-1 [11]: no activity; EC50 [12]: 8 nM; apoptosis in RS4; 11 cells ([12]; cytochrome c release, caspase activation, accumulation of sub-G0/G1 DNA): induces a rapid apoptosis; EC50 [13]: 3 nM; maximal tumor growth inhibition [14]: 95%; tumor growth delay [14]: 152%; xenograft growth DoHH2 [15]: inhibits xenograft growth; xenograft growth Granta-519 [16]: inhibits xenograft growth; clinical efficacy [17]: highly efficacious
COC1(C)CCC(CNc2ccc(S(=O)(=O)NC(=O)c3ccc(N4CCC5(CC4)CC(N4CCC[C@H]4c4ccccc4C(C)C)C5)cc3N3c4cc5cc[nH]c5nc4O[C@@H]4COC[C@H]43)cc2[N+](=O)[O-])CC1 (stereo partly drawn) [Example 36, 4-(2-((S)-2-(2-isopropylphenyl)pyrrolidin-1-yl)-7-azaspiro[3.5]nonan-7-yl)-N-((4-((((1r,4r)-4-methoxy-4-methylcyclohexyl)methyl)amino)-3-nitrophenyl)sulfonyl)-2-((5aR,8aS)-5a,6,8,8a-tetrahydrofuro[3,4-b]pyrrolo[3′,2′:5,6]pyrido[3,2-e][1,4]oxazin-5(1H)-yl)benzamide hydrochloride] | 0.31 | 56.4 | – | –
CC(C)Oc1ccccc1[C@@H]1CCCN1C1CC2(CCN(c3ccc(C(=O)NS(=O)(=O)c4ccc(NCC5CCOCC5)c([N+](=O)[O-])c4)c(N4c5cc6cc[nH]c6nc5O[C@H]5COCC[C@H]54)c3)CC2)C1 [Example 64, 2-[(3R,8R)-2,5-dioxa-9,15,17-triazatetracyclo[8.7.0.0^{3,8}.0^{12,16}]heptadeca-1(10),11,13,16-tetraen-9-yl]-4-{2-[(2S)-2-(2-isopropoxyphenyl)pyrrolidin-1-yl]-7-azaspiro[3.5]nonan-7-yl}-N-{3-nitro-4-[(oxan-4-ylmethyl)amino]benzenesulfonyl}benzamide] | 0.341 | 62.4 | – | –
CC(C)c1ccccc1[C@@H]1CCCN1C1CC2(CCN(c3ccc(C(=O)NS(=O)(=O)c4ccc(NC[C@H]5CC[C@](C)(O)CC5)c([N+](=O)[O-])c4)c(N4c5cc6cc[nH]c6nc5O[C@@H]5COC[C@H]54)c3)CC2)C1 [Example 3-0A] | 0.16 | 5.6 | – | –
CC(C)c1ccccc1[C@@H]1CCCN1C1CC2(CCN(c3ccc(C(=O)NS(=O)(=O)c4ccc(NCC5CCOCC5)c([N+](=O)[O-])c4)c(N4c5cc6cc[nH]c6nc5O[C@@H]5COC[C@H]54)c3)CC2)C1 [Example 1, 2-[(11R,15S)-13,16-dioxa-2,4,10-triazatetracyclo[7.7.0.0^[3,7]0.0^[11,15]]hexadeca-1(9),2,5,7-tetraen-10-yl]-4-[2-[(2S)-2-(2-isopropylphenyl)pyrrolidin-1-yl]-7-azaspiro[3.5]nonan-7-yl]-N-[3-nitro-4-[(oxan-4-ylmethyl)amino]benzenesulfonyl]benzamide] | 0.1 | 5.1 | – | –
CC(C)Oc1ccccc1[C@@H]1CCCN1C1CC2(CCN(c3ccc(C(=O)NS(=O)(=O)c4ccc(NCC5CCOCC5)c([N+](=O)[O-])c4)c(N4c5cc6cc[nH]c6nc5O[C@@H]5CCOC[C@H]54)c3)CC2)C1 [Example 59, 4-(2-((S)-2-(2-isopropoxyphenyl)pyrrolidin-1-yl)-7-azaspiro[3.5]nonan-7-yl)-N-((3-nitro-4-(((tetrahydro-2H-pyran-4-yl)methyl)amino)phenyl)sulfonyl)-2-((5aR,9aR)-5a,8,9,9a-tetrahydro-6H-pyrano[4,3-b]pyrrolo[3′,2′:5,6]pyrido[3,2-e][1,4]oxazin-5(1H)-yl)benzamide] | 0.101 | – | 124 | –
